In assay [1] the test system is Human Microvascular Endothelial Cells. Kind of assay: Human microvascular endothelial cell (HMVEC) migration assay, modified Boyden chamber. It counts as cell-based. The settings on record: activators 15 ng/ml bFGF/VEGF, 4 hours at 37 °C. The method, then: The human microvascular endothelial (HMVEC) migration assay was run according to the procedure of S. S. Tolsma, O. V. Volpert, D. J. Good, W. F. Frazier, P. J. Polverini and N. Bouck, J. Cell Biol. 122, 497-511 (1993).
The HMVEC migration assay was carried out using Human Microvascular Endothelial Cells-Dermal (single donor) and Human Microvascular Endothelial Cells, (neonatal). The BCE or HMVEC cells were starved overnight in DME containing 0.1 % bovine serum albumin (BSA). Cells were then harvested with trypsin and resuspended in DME with 0.1 % BSA at a concentration of 1.5 X 10^6 cells per ml. Cells were added to the bottom of a 48 well modified Boyden chamber (Nucleopore Corporation, Cabin John, MD). The chamber was assembled and inverted, and cells were allowed to attach for 2 hours at 37 °C to polycarbonate chemotaxis membranes (5 µm pore size) that had been soaked in 0.1% gelatin overnight and dried. The chamber was then reinverted, and test substances (total volume of 50 µl), including activators, 15 ng/ml bFGF/VEGF, were added to the wells of the upper chamber. The apparatus was incubated for 4 hours at 37 °C. Membranes were recovered, fixed and stained (Diff Quick, Fisher Scientific) and the number of cells that had migrated to the upper chamber per […] high power fields counted. Background migration to DME + 0.1 BSA was subtracted and the data reported as the number of cells migrated per 10 high power fields (400X) or, when results from multiple experiments were combined, as the percent inhibition of migration compared to a positive control.

Assay [2] concerns Rat Cornea Neovascularization. Kind of assay: Rat cornea neovascularization (bFGF/Hydron pellet implantation). Format: in vivo, Sprague Dawley rats. As to conditions: day seven post-implantation. On the procedure: […] Louis, MO) were pipetted into the tip of a sterile Teflon rod. After drying for 1-2 hours, the pellets were stored at 4 °C.
A small (about 2 mm) radial incision at 1 mm from the center of the cornea was performed in anesthetized Sprague Dawley rats. With a curved iris spatula, an intrastromal pocket was made to a distance of 1 mm from the limbus-the circular blood vessels that surround the cornea. A single pellet was implanted. Antibiotic ointment (neosporin) was applied post surgery to the operated eye to prevent infection and to decrease inflammation.
At day seven post-implantation, neovascularization was measured through a slitlamp biomicroscopy (Nikon NS-1), connected to an image analysis system (Leica Qwin). The response was calculated by colorimetrically detecting the area of new blood vessels, and calculating the new vessel surface area in µm^2.

Peptide text beside a SMILES is read from it.

By % Inhibition is commonly meant how much of the control response was suppressed. The low end stands for a response near the control, the high end for a response far below the control.

Regarding “N-Ac-Sar-Gly-Val-D-Ile-Thr-Nva-Ile-Arg-ProNHethyl-1-(R)-cyclohexyl [Example 8]”, in assay [1], the “% Inhib. @ 10 nM” value was found to be 88.2%.

Take `CCC[C@H](NC(=O)[C@@H](NC(=O)[C@H](NC(=O)[C@@H](NC(=O)CNC(=O)CN(C)C(C)=O)C(C)C)[C@H](C)CC)[C@@H](C)O)C(=O)N[C@H](C(=O)N[C@@H](CCCNC(=N)N)C(=O)N1CCC[C@H]1C(=O)NCC)[C@@H](C)CC` [Example 1, N-Ac-Sar-Gly-Val-D-Ile-Thr-Nva-Ile-Arg-ProNHCH2CH3] (HELM PEPTIDE1{[ac].[Sar].G.V.[dI].T.[Nva].I.R.P.[CCN[*:1]]}$$$$V2.0): the “% Inhibition” value in assay [2] (dose 5 µM in pellet with 100 ng bFGF, 5 corneas) is 74.8%; in assay [2] (dose 6 µM in pellet with 100 ng bFGF, 4 corneas), 71.5%; in assay [2] (dose 10 µM in pellet with 100 ng bFGF, 6 corneas), 92.6%.

On to `CCC[C@H](NC(=O)[C@@H](NC(=O)[C@H](NC(=O)[C@@H](NC(=O)CNC(=O)CN(C)C(C)=O)C(C)C)[C@H](C)CC)[C@@H](C)O)C(=O)N[C@H](C(=O)N[C@@H](CCCNC(=N)N)C(=O)N1CCC[C@H]1C(=O)NC)[C@@H](C)CC` [Example 3, N-Ac-Sar-Gly-Val-D-Ile-Thr-Nva-Ile-Arg-ProNHCH3] (HELM PEPTIDE1{[ac].[Sar].G.V.[dI].T.[Nva].I.R.P.[CN[*:1]]}$$$$V2.0), for which the “% Inhib. @ 20 nM” value in assay [1] stood at 56.0%.

As for “N-Cyclohexylacetyl-Sar-Gly-Val-D-Ile-Tlu-Nva-Ile-Arg-ProNHCH2CH3 [Example 52]”, the “% Inhib. @ 20 nM” value in assay [1] turned out to be 46.5%.

For the compound `CCC[C@H](NC(=O)[C@@H](NC(=O)[C@H](NC(=O)[C@@H](NC(=O)CNC(=O)CN(C)C(=O)CCCCCNC(C)=O)C(C)C)[C@H](C)CC)[C@@H](C)O)C(=O)N[C@H](C(=O)N[C@@H](CCCNC(=N)N)C(=O)N1CCC[C@H]1C(=O)NCC)[C@@H](C)CC` [Example 63, N-[6-N'-Acetyl-(CH2)5C(O)]-Sar-Gly-Val-D-Ile-Thr-Nva-Ile-Arg-ProNHCH2CH3] (HELM PEPTIDE1{[ac].[O=C(CCCCCN[*:1])[*:2]].[Sar].G.V.[dI].T.[Nva].I.R.P.[CCN[*:1]]}$$$$V2.0), in assay [1], the “% Inhib. @ 10 nM” value worked out at 82.4%.

Regarding `CCCCCCCC[C@H](NC(=O)[C@@H](NC(=O)[C@H](NC(=O)[C@@H](NC(=O)CNC(=O)CN(C)C(C)=O)C(C)C)[C@H](C)CC)[C@@H](C)O)C(=O)N[C@H](C(=O)N[C@@H](CCCNC(=N)N)C(=O)N1CCC[C@H]1C(=O)NCC)[C@@H](C)CC` [Example 50, N-Ac-Sar-Gly-Val-D-Ile-Thr-Octylgly-Ile-Arg-ProNHCH2CH3] (HELM PEPTIDE1{[ac].[Sar].G.V.[dI].T.[CCCCCCCC[C@H](N[*:1])C(=O)[*:2]].I.R.P.[CCN[*:1]]}$$$$V2.0), the “% Inhib. @ 20 nM” value in assay [1] was determined as 71.6%.

`CCC[C@H](NC(=O)[C@@H](NC(=O)[C@H](NC(=O)[C@@H](NC(=O)CNC(=O)CN(C)C(C)=O)C(C)C)[C@H](C)CC)[C@@H](C)O)C(=O)N[C@H](C(=O)N[C@@H](CCCNC(=N)N)C(=O)N1CCC[C@H]1C(=O)NCCC1CCCCC1)[C@@H](C)CC` [Example 12, N-Ac-Sar-Gly-Val-D-Ile-Thr-Nva-Ile-Arg-ProNHCH2CH2-cyclohexyl] (HELM PEPTIDE1{[ac].[Sar].G.V.[dI].T.[Nva].I.R.P.[C1CCC(CCN[*:1])CC1]}$$$$V2.0): the “% Inhib. @ 20 nM” value in assay [1] is recorded as 55.8%.

These data come from patent publication EP1078002B1, “PEPTIDE ANTIANGIOGENIC DRUGS” (ABBOTT LABORATORIES, priority 1998, dated 1999).
